Non-standard residues stand in square brackets, D forms with d. Residues, ends and D or L forms follow the SMILES beside them. Dolaproine = CO[C@@H]([C@@H]1CCCN1)[C@@H](C)C(=O)O; Dil = CC[C@H](C)[C@H](NC)[C@@H](CC(=O)O)OC; NMeV = CN[C@H](C(=O)O)C(C)C
Columns and labels:
[1] = In vitro metabolite profiling in rat liver microsome; assay type: in vitro ADME; conditions: 90 min, 37 °C
From the text: (§1) LC-TOF-MS/MS was consisted of a Shimadzu CBM-20A/LC-20AD chromatographic system (Shimadzu Scientific Instruments, Columbia, MD, USA), with an eksigent CTC HTS PAL auto-sampler (Sciex, Redwood City, CA, USA) and a quadrupole time-of-flight TripleTOF 5600 mass spectrometer (Sciex, Redwood City, CA, USA). Kinetex XB-C18 column (2.1 × 50 mm, Phenomenex) for quantification and Kinetex XB-C18 column (2.1 × 100 mm, Phenomenex) for metabolite profiling studies were used as analytical columns. The LC mobile phase consisted of DW containing 0.1% formic acid (phase A) and ACN containing 0.1% formic acid (phase B). The flow rate was 0.4 mL/min for quantification and 0.3 mL/min for Met ID while maintaining the column temperature at 55 °C. Injection volume was 10 μL.
(§2) (2) Metabolite profiling: The mass spectrometric conditions for the metabolite profiling of MMAF were as follows. The information-dependent analysis (IDA) with high-resolution TOF full scan was operated with electrospray ionization (ESI) in positive ion mode using real-time multiple mass defect filtering (MDF) and dynamic background subtraction. The IDA method consisted of TOF scan (m/z 50 to 1200) for the detection of MMAF and its metabolites. The method was followed by 6 TOF-MS/MS dependent scans (m/z 50 to 1200) for structural elucidation. […]

[2] = Pharmacokinetic study of MMAF in rat (IV and PO), plasma by LC-TOF-MS/MS; assay type: in vivo; conditions: male SD rat
Procedure: Twenty microliters of rat plasma samples were placed in a cluster tube. Four microliters (make-up solution) of DMSO were added to the cluster tube, and 100 μL of ACN was also added. The mixture was capped and vortexed, and then centrifuged for 5 min at 12,000 rpm (4 °C). Following the centrifugation, 70 μL supernatant was transferred to an LC vial and diluted by adding 140 μL of DW.
as §1
(1) Quantification: For TOF-MS/MS scan, the scan range was m/z 100~900. The protonated [M + H]^+ ion of MMAF (m/z 732.5) was used and its product ions at m/z 700.5 and m/z 520.3 were selected as the quantitative ion and the qualitative ion, respectively. The source temperature was set at 500 °C. The curtain gas flow was set at 30 L/min. The ion spray voltage (IVSF) was set at 5500 V. The declustering potential (DP) was 100 V, and the collision energy (CE) was 36 V.
Data acquisition and LC-MS/MS operation were conducted using Analyst® TF Version 1.6 (Sciex, Redwood City, CA, USA). MultiQuant® Version 2.1.1 (Sciex, Redwood City, CA, USA) was used for peak integration for MMAF quantification. The descriptive statistics for the qualification studies were calculated with Excel 2015 (Microsoft, Seoul, Korea). Pharmacokinetic parameters were calculated in a non-compartmental analysis using WinNonlin® version 8.0.0 (Certara, Princeton, NJ, USA). PeakView® Version 2.2 (Sciex, Redwood City, CA, USA) and MetabolitePilot^TM Version 2.0.2 (Sciex, Redwood City, CA, USA) were used for the structural elucidation of metabolites. MedChem Designer (Simulations Plus, Inc, Lancaster, CA, USA) was used for in silico metabolite prediction.
Male Sprague-Dawley (SD) rats were used for rat PK studies of MMAF. For rat PK studies of MMAF, rats were distributed into two different groups (5 mg/kg IV (intravenous) group and 10 mg/kg PO (oral) group). After IV or PO dose, blood samples were collected to heparinized tubes and centrifuged immediately at 10,000 rpm for 5 min. The sampling times were 0, 2, 5, 15, 30, 60, 90, 120, 240, 360, and 1440 min for IV PK and 0, 5, 15, 30, 60, 90, 120, 240, 360, and 1440 min for PO PK. The supernatant was transferred to a clean tube and stored at −80 °C until analysis.

[3] = Preliminary stability tests of MMAF in rat plasma; assay type: in vitro ADME; conditions: for Short-term stability, mean concentration / Short-term stability, accuracy %: RT, 4 h; for Short-term stability, accuracy % / Long-term stability, accuracy % / Freeze-thaw stability, accuracy %: n = 3; for Freeze-thaw stability, accuracy %: three cycles
Procedure: Preliminary stability tests were performed in rat plasma under 4 different conditions, including short-term, freeze-thaw, long-term, and post-preparative stability. The short-term stability was assessed at room temperature (RT) for 4 hrs. The long-term stability was assessed by comparing the freshly prepared control samples to the samples kept frozen for 4 weeks at −80 °C. For the freeze-thaw stability, the stability-test samples were subjected to three freeze and thaw cycles at −80 °C. The post-preparative stability was assessed for the QC samples kept in an auto-sampler (10 °C) for 12 hrs.
The acceptance criteria for all of the qualification were within ±15% of the precision and accuracy.

[4] = qualitative comparison; cited from earlier work
From the text: Auristatin is a microtubule-destroying drug. It was derived from marine shell-less mollusk Dolabella auricularia called dolastatins (Figure 1). After the dolastatin was found, it has been studied in the treatment of cancer, malaria, and fungus. After the successful total synthesis of dolastatin 10, various derivatives have been synthesized, such as monomethyl auristatin E (MMAE) and monomethyl auristatin F (MMAF). MMAE and MMAF were developed by Seattle Genetics and used as payloads for ADC. MMAF and MMAE have their advantages and disadvantages. MMAE is m ...

[5] = In vitro metabolite profiling in human liver microsome; assay type: in vitro ADME; conditions: 90 min, 37 °C
From the text: as §1, §2

[6] = processed rat plasma QC in auto-sampler, 10 °C, high QC
[7] = processed rat plasma QC in auto-sampler, 10 °C, low QC

CC[C@H](C)[C@@H]([C@@H](CC(=O)N1CCC[C@H]1[C@H](OC)[C@@H](C)C(=O)N[C@@H](Cc1ccccc1)C(=O)O)OC)N(C)C(=O)[C@@H](NC(=O)[C@@H](NC)C(C)C)C(C)C [MMAF, monomethyl auristatin F] (H-[NMeV]V[Dil][Dolaproine]F-OH)
Number of metabolites tentatively identified [1]: four | clearance ([2]; Sprague-Dawley, plasma, IV 5 mg/kg, non-compartmental analysis, read-out: Clearance (CL)): 77.3 mL/min/kg | Vd ([2]; Sprague-Dawley, plasma, IV 5 mg/kg, non-compartmental analysis, read-out: Vss): 1.06 L/kg | AUC(0-t) ([2]; Sprague-Dawley, IV 5 mg/kg, plasma, non-compartmental analysis): 1090 ng·h/mL | Cmax ([2]; Sprague-Dawley, IV 5 mg/kg, plasma, non-compartmental analysis, LC-TOF-MS/MS): 8280 ng/mL | Bioavailability ([2]; PO 10 mg/kg vs IV 5 mg/kg): 0% | Systemic exposure after oral dosing ([2]; PO 10 mg/kg, plasma): no systemic exposure was observed | Post-preparative stability, area ratio after 12 h as % of first injection [3, 6]: 99.98% | Post-preparative stability, area ratio of 10th injection (after 12hr) [3, 6]: 7.43 | Post-preparative stability, area ratio after 12 h as % of first injection [3, 7]: 97.93% | Post-preparative stability, area ratio of 10th injection (after 12hr) [3, 7]: 0.61 | Post-preparative stability, area ratio of 1st injection [3, 6]: 7.43 | Short-term stability, mean concentration ([3]; rat plasma, high QC 1820 ng/mL, LC-TOF-MS/MS, mean of n = 3): 1884.23 ng/mL | Short-term stability, accuracy % ([3]; rat plasma, high QC 1820 ng/mL): 103.53% | Short-term stability, mean concentration ([3]; rat plasma, low QC 165.46 ng/mL, LC-TOF-MS/MS, mean of n = 3): 149.90 ng/mL | Short-term stability, accuracy % ([3]; rat plasma, low QC 165.46 ng/mL): 90.60% | Long-term stability, mean concentration ([3]; rat plasma, −80 °C, 4 weeks, high QC 1820 ng/mL, LC-TOF-MS/MS, mean of n = 3): 1657.96 ng/mL | Long-term stability, accuracy % ([3]; rat plasma, −80 °C, 4 weeks, high QC 1820 ng/mL): 91.10% | Long-term stability, accuracy % ([3]; rat plasma, −80 °C, 4 weeks, low QC 165.46 ng/mL): 95.46% | Freeze-thaw stability, accuracy % ([3]; rat plasma, −80 °C, high QC 1820 ng/mL): 91.10% | Freeze-thaw stability, accuracy % ([3]; rat plasma, −80 °C, low QC 165.46 ng/mL): 95.46% | Stability in rat plasma (in words) ([3]; short-term, long-term, freeze/thaw and post-preparative conditions, acceptance ±15%): stable | Aggregation tendency relative to MMAE [4]: lower aggregation tendency | Hydrophilicity relative to MMAE [4]: more hydrophilic | Systemic toxicity relative to MMAE [4]: lower systemic toxicity | Number of metabolites tentatively identified [5]: seven

monomethyl auristatin E [MMAE]
IC50 relative to MMAF [4]: lower IC50 than MMAF | Membrane permeability relative to MMAF [4]: more membrane-permeable

Source: paper PMC6696338, “Pharmacokinetic and Metabolism Studies of Monomethyl Auristatin F via Liquid Chromatography-Quadrupole-Time-of-Flight Mass Spectrometry” (Molecules, 2019)
